Assay results as given in patent US10577322B2, “5-methoxytryptophan and its derivatives and uses thereof” (National Health Research Institutes, priority 2015, dated 2020).

How the values were obtained:
A549 lung cancer cells = experiment: Transwell cell migration assay, A549; type: cell-based; conditions: 30 min pretreatment, PMA 4 h or 24 h
Description: (§1) Briefly, cells (10^4/well) were seeded on the upper chamber (6.5-mm insert, 8-μm polycarbonate membrane; Corning Inc.), which was placed in each well of a 24-well plate. The lower chamber was filled with 700 μL DMEM supplemented with 10% FBS. For assessment of in vitro invasion, cells were seeded onto the upper chamber insert coated with Matrigel (BD Biosciences) under the same conditions as the transwell migration assays. At the indicated time, nonmigrated cells that remained at the top surface of the insert were removed with a cotton swab. Cells that migrated to the lower membrane surface and cells that invaded through the matrigel gel to the underside of the membrane were fixed, stained with 0.1% crystal violet for 20 min, and counted under light microscopy. All of the assays were done in triplicate with excellent reproducibility.
(§2) Lung cancer A549 and breast cancers BT474 and T47D cells were pretreated with different concentrations of 5-MTP or 5-MTPE for 30 min, then stimulated with PMA for 4 h or 24 h. Cell migration was measured by the transwell migration assay.

[1] = test system: BT474 breast cancer cells; experiment: Transwell cell migration assay, BT474; type: cell-based; conditions: 30 min pretreatment, PMA 4 h or 24 h
Description: as §1, §2

A549 subcutaneous tumor = experiment: Tumor xenograft experiment (A549 s.c. in SCID mice); type: in vivo; conditions: 100 mg/kg intraperitoneal twice weekly; for subcutaneous tumor volume: 7 weeks
Description: Six-week-old male CB-17 SCID mice, purchased from BioLASCO, were housed in a daily cycle of 12-h light and 12-h darkness and pathogen-free conditions at 26° C. at the Animal Center of the National Health Research Institutes. A549-luc-C8 cells (Caliper Life Sciences), cultured in RPMI-1640 supplemented with 10% FBS, were pretreated with 100 μM 5-MTP, 100 μM 5-MTPE or vehicle for 5 h and were inoculated into the flank of mice subcutaneously (s.c.) (5×10^6 cells/mouse). The 5-MTP-, or 5-MTPE-treated mice (n=10) were injected with 100 mg 5-MTP or 5-MTPE /kg body weight intraperitoneally twice weekly. The vehicle group (n=10) was injected with vehicle (0.033 N HCl in RPMI medium, neutralized with NaOH) twice weekly. The size of s.c. tumors were caliper-measured twice weekly. The tumor volume was calculated according to the formula of length×width×width/2. The tumor growth was also monitored weekly by an IVIS spectrum imaging system. Mice were euthanized at day 52. Subcutaneous tumors and lungs were removed and fixed with 10% Formalin. Nodules on each lobe of the lungs were counted. Histology of the nodules was examined under microscopy by tissue section and H&E staining. The animals' care was in accordance with institutional guidelines and the protocol of in vivo experiments was approved by the Institutional Animal Care and Utilization Committee of the National Health Research Institutes.
In addition, A549 (5×10^6 cells) was injected subcutaneously into the flank of SCID-Beige mice. 10 mice each received intraperitoneal injection of 5-MTP (100 mg/kg), 5-MTPE (100 mg/kg) or vehicle twice weekly. Caliper measurement of the subcutaneous tumor volume periodically for 7 weeks. […] The average tumor volume at 7-week in the 5-MTP treated group was ˜50% of that in the control group.

atherosclerotic lesions = experiment: Lipid accumulation and atherosclerotic lesions in ApoE-deficient mice on high fat diet; type: in vivo; conditions: 23.5 mg/kg 3 times a week i.p., 8 weeks
Description: ApoE-deficient mice at 6 weeks were placed on a Western high fat diet containing 1.25% cholesterol and 21% fat (Research. Diets). The mice were simultaneously treated with vehicle (PBS), 5-MTP or 5-MTPE (23.4 mg/kg body weight, 3 times a week) by intraperitoneal injection. After 8 weeks, the aortic trees were dissected and lesions examined in the aortic arch and its branches. The aortas were carefully freed of connective and adipose tissue under a dissection microscope, opened longitudinally and stained with Oil red 0.
Since reduction of serum 5-MTP in CAD patients may be associated with the development of vascular disease, we determined whether exogenous 5-MTP derivatives exert protective effect in the development of atherosclerosis. ApoE-deficient mice were fed a Western high fat diet containing 1.25% cholesterol and 21% fat (Research Diets) starting at 6 weeks of age. The mice were simultaneously treated with vehicle (PBS), 5-MTP or 5-MTPE (23.5 mg/kg body weight, 3 times a week) by intraperitoneal injection. After 8 weeks, the aortic trees were dissected and lesions examined in the aortic arch and its branches.

IL-6 = experiment: LPS-induced IL-6 level in RAW264.7 culture supernatants (ELISA); type: cell-based, mouse; conditions: RAW264.7 cells; for LPS-induced IL-6 level in culture supernatants: 30 min pretreatment, LPS 24 h
Description: Mouse RAW264.7 macrophages were from the American Type Culture Collection and cultured in DMEM containing 10% FBS. […] The duration of LPS (100 ng/ml) treatment varied depending on the experiment.
Moreover, RAW264.7 cells and IL-6 promoter-luciferase plasmid transfected RAW264.7 cells were pretreated with different concentrations of 5-MTP for 30 min, followed by LPS stimulation for 8 h. IL-6 promoter activity was measured by luciferase assay. IL-6 level in culture supernatants was measured by ELISA.
Furthermore, RAW264.7 cells were treated with different concentrations of 5-MTP or 5-MTPE for 24 h. Cell viability was determined by MTT assay. In another experiment, after pretreating RAW264.7 cells with different concentrations of 5-MTP or 5-MTPE for 30 min, cells were stimulated with LPS for 24 h. IL-6 level in culture supernatants was measured by ELISA.
Herein, after pretreating RAW264.7 cells with different concentrations of 5-MTP, 5-MTPE, COX-2 inhibitors (NSC398 or SC560) and NF-κB inhibitor JSH-23 for 30 min, cells were stimulated with LPS. In addition, RAW264.7 cells were also transfected with COX-2 promoter-luciferase plasmid. After 24 h transfection, the cells were incubated with LPS for 8 h. Luciferase activity as measured.

[2] = test system: vascular smooth muscle cells; experiment: Calcifying medium-induced calcification in vascular smooth muscle cells; type: cell-based
Description: Vascular smooth muscle cell (VSMC) calcification is the major phenomenon to induce atherosclerotic vascular calcification in cardiovascular disease (CVD). We next investigated the effect of 5-MTP derivatives on VSMC calcification.

T47D breast cancer cells = experiment: Transwell cell migration assay, T47D; type: cell-based; conditions: 30 min pretreatment, PMA 4 h or 24 h
Description: as §1, §2

| SMILES | PMA-induced A549 cell migration (A549 lung cancer cells) | PMA-induced BT474 cell migration [1] | average tumor volume at 7-week, of that in the control group (A549 subcutaneous tumor) [%] | subcutaneous tumor volume (A549 subcutaneous tumor) | lipid accumulation in the arteries (atherosclerotic lesions; ApoE-deficient mice) | LPS-induced IL-6 level in culture supernatants (IL-6) | LPS-induced IL-6 protein expression (IL-6; LPS 8 h) | calcifying medium-induced calcification [2] | PMA-induced T47D cell migration (T47D breast cancer cells) | lipid accumulation in atherosclerotic lesions (Oil red O) (atherosclerotic lesions) | LPS-induced IL-6 level in culture supernatants (IL-6; listed as 5MTPE) | suppressive capacity on IL-6 production in comparison with 5-MTP, COX-2 inhibitors (IL-6; 24 h after LPS) | IL-6 suppressive activity compared with JSH-23 (IL-6; LPS) |
| --- | --- | --- | --- | --- | --- | --- | --- | --- | --- | --- | --- | --- | --- |
| COc1ccc2[nH]cc(C[C@H](N)C(=O)O)c2c1 [5-MTP, 5-methoxytryptophan] | abrogated | abrogated | ~50 | suppressed tumor volume in a time-dependent manner | less lipid accumulation | dose-dependently blocked | inhibited | reduced | abrogated |  |  |  |  |
| COC(=O)C(N)Cc1c[nH]c2ccc(OC)cc12 (stereo not shown) [5-MTPE, ester-5-MTP] | abrogated | abrogated |  | suppressed tumor volume in a time-dependent manner |  | significantly inhibited |  | reduced | abrogated | suppressed lipid accumulation | dose-dependently blocked | better suppressive capacity | potent than that of NF-κB inhibitor JSH-23 |
